How the values were obtained:
[1] = system: cardiac myocytes; test: Cardiac myocyte cell death under hypoxia / normoxia; format: cell-based
Excerpt: Accordingly, it can be seen that inhibitor compounds which bind to the novel BAX site can protect cardiac myocytes from cell death induced by hypoxia.

[2] = system: mitochondrial apoptosis-induced channel; conditions: Peixoto et al. Biochem J. 2009; cited from earlier work
[3] = biological target: T1, BAX (Homo sapiens, UniProt Q07812); test: NMR chemical shift perturbation of 15N-BAX upon titration; format: binding
T1 sequence (Q07812 whole entry): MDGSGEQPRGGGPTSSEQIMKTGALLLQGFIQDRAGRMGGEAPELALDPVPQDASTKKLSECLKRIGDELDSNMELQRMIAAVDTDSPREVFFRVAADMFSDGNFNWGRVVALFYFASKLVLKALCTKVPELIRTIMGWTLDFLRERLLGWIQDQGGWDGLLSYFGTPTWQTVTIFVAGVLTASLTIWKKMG
Excerpt: FIG. 4A-B. Measured chemical shift changes of 15N-BAX upon iMAC1 and iMAC2 titration up to a ratio of 1:4 BAX:iMAC are plotted as a function of BAX residue number. Residues with significant backbone amide chemical shift change are highlighted in orange. Highest significant chemical shift changes (twice the calculated significance threshold) are highlighted in red. […] Chemical shift changes in other regions of the structure are not localized and predominantly occur in hydrophobic residues at the hydrophobic core of the BAX structure. Regions that previously identified to be involved in regulating BAX activation are shown in violet shading (helix α1 and α6), teal shading (helix α2) and yellow shading (helix α9).
FIG. 13: Measured chemical shift changes of ^15N-BAX upon octyl glucoside detergent titration, below the detergent's CMC point, are plotted as a function of BAX residue number. Residues with significant backbone amide chemical shift change are highlighted in orange. Highest significant chemical shift changes (twice the calculated significance threshold) are highlighted in red.
Significant CSP mapped onto the surface and ribbon depictions of BAX (FIG. 5), the BAX trigger site (blue), the canonical BH3-binding site and a9 (green) are included for comparison. Affected residues are represented by the orange and red spheres in the ribbon diagram and by the orange and red bars in the plot (the calculated significance threshold is marked in orange and is equal to the average shift plus the standard deviation while values at double the threshold are marked in red).

[4] = biological target: T1, BAX; test: Liposome release assay (ANTS/DPX release by tBID-activated BAX); format: biochemical
Procedure: FIG. 3. Left: Kinetic trace of percent release of ANTS and DPX from liposomes in response to tBID activated BAX in the absence (blue) and presence of iMAC1 (green) and iMAC2 (Red). Right: Percent release after 20 minutes at different doses of iMAC1 (green), iMAC2 (red) and iMAC3 (blue). Each molecule was tested at 6, 3 and 1.5 μM, high to low doses are indicated by dark to light tones.
FIG. 18A-18B. […] B) Docked structure of […] within the novel BAX site.
iMAC1 and iMAC2 Inhibit BAX Activation in Liposome Release Assays: Liposomes containing the fluorophore, ANTS, and the quencher, DPX, were incubated with 200 nM BAX activated with 30 nM tBID resulting in BAX-mediated pore formation in the liposomal membrane and release of ANTS and DPX.

[5] = biological target: oligomeric BAX (Homo sapiens, UniProt Q07812); test: Ligand-observed NMR (chemical shift, STD, WATER LOGSY); format: binding; conditions: aromatic peaks of ligand observed
oligomeric BAX, sequence (Q07812 whole entry): as above
Excerpt: FIG. 22. iMACs bind to both monomer and oligomeric BAX.
iMACs Bind to Both Monomeric and Oligomeric BAX in vitro.

| binding to oligomeric BAX [5] | Structure (SMILES) | protection from cell death ([1]; hypoxia, compared to vehicle (0.2% DMSO)) | effect on cardiac myocytes ([1]; normoxia) | inhibition of cytochrome c release and mitochondrial apoptosis-induced channel activity [2] | region of chemical shift changes of 15N-BAX ([3]; iMAC titration up to a ratio of 1:4 BAX:iMAC) | inhibition of tBID-induced BAX activation and BAX pore formation (release of ANTS and DPX from liposomes) ([4]; 200 nM BAX, 30 nM tBID, tested at 6, 3 and 1.5 μM, release after 20 minutes) | region of chemical shift changes of 15N-BAX ([3]; detergent titration below the detergent's CMC point) | binding to the novel BAX site by NMR analysis ([3]; octyl glucoside titration, FIG. 13) | inhibition of BAX activation and BAX-mediated pore formation in liposomal membranes ([4]; concentrations well below the critical micelle concentration (CMC)) |
| --- | --- | --- | --- | --- | --- | --- | --- | --- | --- |
| – | OC(CN1CCNCC1)Cn1c2ccc(Br)cc2c2cc(Br)ccc21 (stereo not shown) [iMAC1] | protects cardiac myocytes from cell death induced by hypoxia | no effect | more potent inhibitors | – | – | – | – | – |
| binding to both oligomeric BAX | Cl.Cl.FC(CN1CCNCC1)Cn1c2ccc(Br)cc2c2cc(Br)ccc21 (stereo not shown) [iMAC2] | – | – | more potent inhibitors | concentrated in the region formed by helices α3, α4, α5 and loop α3-α4 | inhibit tBID-induced BAX activation and BAX pore formation | – | – | – |
| – | CCCCCCCCO[C@@H]1O[C@H](CO)[C@@H](O)[C@H](O)[C@H]1O [n-octyl-3-D-glucoside] | – | – | – | – | – | concentrated in the region formed by helices α3, α4, α5, α6 and loop α3-α4 | binding to the novel site that regulates BAX inhibition | inhibits BAX activation and BAX-mediated pore formation |
